Results from patent publication US10463644B2, “Uses of sesquiterpene lactone compounds and their derivatives in drugs preparation” (ACCENDATECH, priority 2013, dated 2019).
Where two headings read alike, the source gives them in different places.

Columns and labels:
[1] = test system: TNF-α secreted by synoviocyte; assay: Content of TNF-α in culture supernatant of synoviocyte of RA model rats given test compound; format: in vivo; conditions: rat RA model, dose 30 mg/kg.2d; normal control 0.38 ± 0.027, NaCl 0.74 ± 0.098
Summary of the method: (§1)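 Values reflect mediator secretion by synoviocytes taken from arthritic rats dosed at 30 mg/kg.2d. Normal and NaCl groups served as references.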

[2] = test system: IL-1β secreted by synoviocyte; assay: Content of IL-1β in culture supernatant of synoviocyte of RA model rats given test compound; format: in vivo; conditions: rat RA model, dose 30 mg/kg.2d; normal control 0.16 ± 0.034, NaCl 0.49 ± 0.136
Summary of the method: as §1

[3] = test system: PGE2 secreted by synoviocyte; assay: Content of PGE2 in culture supernatant of synoviocyte of RA model rats given test compound; format: in vivo; conditions: rat RA model, dose 30 mg/kg.2d; normal control 8.34 ± 1.29, NaCl 32.44 ± 10.32
Summary of the method: as §1

cancer stem cells = assay: Survival rate of cancer stem cells after test compound is added (flow cytometry, Annexin V-FITC/PI, clinical specimen); format: cell-based, patient; conditions: Homo sapiens, 18 h
Summary of the method: (§2)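 Patient specimens (e.g. AML, CD34+/CD38+ stem-cell marker) separated on Ficoll; mononuclear cells at 1×10^6/mL in serum-free IMDM treated 18 h with compound. Cells stained for stem-cell markers, then Annexin V-FITC/PI, and apoptosis measured by flow cytometry within one hour.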

cancer cells = assay: Survival rate of cancer cells after test compound is added (flow cytometry, Annexin V-FITC/PI, clinical specimen); format: cell-based, patient; conditions: Homo sapiens, 18 h, read-out: Survival rate (%) All cells (Stem cells and ordinary cells)
Summary of the method: as §2

[4] = Head and neck squamous cell carcinomas

With `C=C1C(=O)O[C@@H]2[C@@H]3[C@@H](CCC34CC4)C3(CC[C@@H]12)CC3` [Compound 26] the “Content of TNF-α in culture supernatant of synoviocyte (x ± s)” value [1] was 0.59 ± 0.051 ng/mL, the “Content of IL-1β in culture supernatant of synoviocyte (x ± s)” value [2] was 0.42 ± 0.052 ng/mL and the “Content of PGE2 in culture supernatant of synoviocyte (x ± s)” value [3] was 25.61 ± 5.41 ng/mL. It also gave a viability at 10 µM (cancer stem cells; AML) of 86%, a viability at 20 µM (cancer stem cells; AML) of 73% and a viability at 10 µM (cancer stem cells; Brain glioma) of 84%. The viability at 20 µM (cancer stem cells; Brain glioma) was 76%, the viability at 10 µM (cancer stem cells; Brain tumor) was 84% and the viability at 20 µM (cancer stem cells; Brain tumor) was 73%. For the same molecule, the viability at 10 µM (cancer stem cells; Breast cancer) was 85%, the viability at 20 µM (cancer stem cells; Breast cancer) was 74% and the viability at 10 µM (cancer stem cells; CLL) was 84%. For the same molecule, the viability at 20 µM (cancer stem cells; CLL) was 74%, the viability at 10 µM (cancer stem cells; CML) was 88% and the viability at 20 µM (cancer stem cells; CML) was 76%. For the same molecule, the viability at 10 µM (cancer stem cells; Children hepatoblastoma) was 85%, the viability at 20 µM (cancer stem cells; Children hepatoblastoma) was 79% and the viability at 10 µM (cancer stem cells; Colon adenocarcinoma) was 86%. It also gave a viability at 20 µM (cancer stem cells; Colon adenocarcinoma) of 81%, a viability at 10 µM (cancer stem cells; Colorectal cancer) of 79% and a viability at 20 µM (cancer stem cells; Colorectal cancer) of 72%. The viability at 10 µM (cancer stem cells; Gastric cancer) was 83%, the viability at 20 µM (cancer stem cells; Gastric cancer) was 77% and the viability at 10 µM (cancer stem cells; Gastrointestinal tumor) was 87%. The viability at 20 µM (cancer stem cells; Gastrointestinal tumor) was 82%, the viability at 10 µM (cancer stem cells; Glioma) was 87% and the viability at 20 µM (cancer stem cells; Glioma) was 76%. For the same molecule, the viability at 10 µM (cancer stem cells; [4]) was 84%, the viability at 20 µM (cancer stem cells; [4]) was 78% and the viability at 10 µM (cancer stem cells; Laryngeal cancer) was 80%. It also gave a viability at 20 µM (cancer stem cells; Laryngeal cancer) of 75%, a viability at 10 µM (cancer stem cells; Liver cancer) of 82% and a viability at 20 µM (cancer stem cells; Liver cancer) of 79%. The viability at 10 µM (cancer stem cells; Lung adenocarcinoma) was 85%, the viability at 20 µM (cancer stem cells; Lung adenocarcinoma) was 82% and the viability at 10 µM (cancer stem cells; Lung cancer) was 82%. For the same molecule, the viability at 20 µM (cancer stem cells; Lung cancer) was 78%, the viability at 10 µM (cancer stem cells; Malignant melanoma) was 82% and the viability at 20 µM (cancer stem cells; Malignant melanoma) was 76%. The viability at 10 µM (cancer stem cells; Nasopharynx cancer) was 85%, the viability at 20 µM (cancer stem cells; Nasopharynx cancer) was 74% and the viability at 10 µM (cancer stem cells; Ovarian cancer) was 86%. It also gave a viability at 20 µM (cancer stem cells; Ovarian cancer) of 75%, a viability at 10 µM (cancer stem cells; Pancreatic cancer) of 86% and a viability at 20 µM (cancer stem cells; Pancreatic cancer) of 77%. It also gave a viability at 10 µM (cancer stem cells; Prostate cancer) of 86%, a viability at 20 µM (cancer stem cells; Prostate cancer) of 77% and a viability at 10 µM (cancer stem cells; Retinoblastoma) of 82%. The viability at 20 µM (cancer stem cells; Retinoblastoma) was 74%, the viability at 10 µM (cancer stem cells; Skin cancer) was 86% and the viability at 20 µM (cancer stem cells; Skin cancer) was 75%. It also gave a viability at 10 µM (cancer cells; AML) of 93%, a viability at 20 µM (cancer cells; AML) of 85% and a viability at 10 µM (cancer cells; Brain glioma) of 88%. It also gave a viability at 20 µM (cancer cells; Brain glioma) of 85%, a viability at 10 µM (cancer cells; Brain tumor) of 89% and a viability at 20 µM (cancer cells; Brain tumor) of 85%. For the same molecule, the viability at 10 µM (cancer cells; Breast cancer) was 89%, the viability at 20 µM (cancer cells; Breast cancer) was 86% and the viability at 10 µM (cancer cells; CLL) was 93%. For the same molecule, the viability at 20 µM (cancer cells; CLL) was 85%, the viability at 10 µM (cancer cells; CML) was 92% and the viability at 20 µM (cancer cells; CML) was 79%. For the same molecule, the viability at 10 µM (cancer cells; Children hepatoblastoma) was 93%, the viability at 20 µM (cancer cells; Children hepatoblastoma) was 86% and the viability at 10 µM (cancer cells; Colon adenocarcinoma) was 91%. The viability at 20 µM (cancer cells; Colon adenocarcinoma) was 89%, the viability at 10 µM (cancer cells; Colorectal cancer) was 87% and the viability at 20 µM (cancer cells; Colorectal cancer) was 81%. For the same molecule, the viability at 10 µM (cancer cells; Gastric cancer) was 88%, the viability at 20 µM (cancer cells; Gastric cancer) was 84% and the viability at 10 µM (cancer cells; Gastrointestinal tumor) was 93%. It also gave a viability at 20 µM (cancer cells; Gastrointestinal tumor) of 88%, a viability at 10 µM (cancer cells; Glioma) of 94% and a viability at 20 µM (cancer cells; Glioma) of 87%. The viability at 10 µM (cancer cells; [4]) was 91%, the viability at 20 µM (cancer cells; [4]) was 88% and the viability at 10 µM (cancer cells; Laryngeal cancer) was 88%. For the same molecule, the viability at 20 µM (cancer cells; Laryngeal cancer) was 82%, the viability at 10 µM (cancer cells; Liver cancer) was 89% and the viability at 20 µM (cancer cells; Liver cancer) was 87%. For the same molecule, the viability at 10 µM (cancer cells; Lung adenocarcinoma) was 91%, the viability at 20 µM (cancer cells; Lung adenocarcinoma) was 87% and the viability at 10 µM (cancer cells; Lung cancer) was 88%. For the same molecule, the viability at 20 µM (cancer cells; Lung cancer) was 84%, the viability at 10 µM (cancer cells; Malignant melanoma) was 88% and the viability at 20 µM (cancer cells; Malignant melanoma) was 86%. The viability at 10 µM (cancer cells; Nasopharynx cancer) was 94%, the viability at 20 µM (cancer cells; Nasopharynx cancer) was 81% and the viability at 10 µM (cancer cells; Ovarian cancer) was 91%. It also gave a viability at 20 µM (cancer cells; Ovarian cancer) of 84%, a viability at 10 µM (cancer cells; Pancreatic cancer) of 90% and a viability at 20 µM (cancer cells; Pancreatic cancer) of 86%. For the same molecule, the viability at 10 µM (cancer cells; Prostate cancer) was 92%, the viability at 20 µM (cancer cells; Prostate cancer) was 89% and the viability at 10 µM (cancer cells; Retinoblastoma) was 91%. It also gave a viability at 20 µM (cancer cells; Retinoblastoma) of 85%, a viability at 10 µM (cancer cells; Skin cancer) of 94% and a viability at 20 µM (cancer cells; Skin cancer) of 87%.
